In patent US20240400986A1, “MEMBRANE BOUND COMPOSITIONS AND METHODS RELATING TO SAME” (FLAGSHIP PIONEERING INNOVATIONS VII, LLC, priority 2021, published 2024):
Peptide text beside a SMILES is read from it. * marks the point of attachment. Cbz = O=C(OCc1ccccc1)*

How the values were obtained:
neuronal cells [1] = test: Gigasome-mediated extraction of APP-CTFs upon γ-secretase and proteasome inhibition (fixed plates, confocal); type: cell-based, human
Description: Cells were treated with the γ-secretase inhibitor L-685,458 at 5 μM, either alone or in combination with the proteasome inhibitor MG-132 at 0.1 μM. A vehicular control amount of DMSO was added to the media to comparatively study cargo signals within cells and gigasomes. Treatments were carried out in reduced serum-containing media (3% FBS) for 24 hours. Disease-related cargo presence within cells and in gigasomes was characterized and quantified by confocal microscopy analysis of 4% paraformaldehyde fixed cells, following (immuno)fluorescent labeling of cytosolic, nuclear and cargo-specific protein markers. In some experiments β-III tubulin and Alexa Fluor® 488 phalloidin were used to mark the cytosol and proximal plasma membrane, respectively. To detect APP-CTFs, an antibody against the C-terminus of APP (C-APP) was used (see Table 12). Non-specific labeling was blocked by incubation with 5% normal goat serum in PBS in the presence of 0.05% saponin, for 1 h at room temperature. Primary antibodies were incubated overnight at 4° C., followed by incubation with Alexa Fluor®-conjugated secondary antibodies for 1 hour at room temperature. Nuclei were counterstained with DAPI.
A range of 5-8 images per well were taken from replicate experiments to capture a final total range of 150-200 cells. […] The cellular cargo fluorescence intensity in the red channel was quantified by subtracting the background signal from each image, using the ImageJ built-in “subtract background” function with a default rolling ball radius of 50 pixel. The cargo signal (integrated density) in the red channel was measured and normalized to the number of nuclei counted in each field. […]
For particle analysis, the cytosolic and F-actin/membrane signals were merged into single RGB image, converted to grayscale and then thresholded to create a cellular mask of objects in the field of view, as calculated by the “Li” autothreshold algorithm. […] The quantity or distribution of objects obtained from the particle analysis was divided by the number of cells counted in each field to obtain a normalized quantity or distribution.

neuronal cells [2] = test: Gigasome-mediated extraction of exogenously added Tau fibrils (live plated cells and culture media); type: cell-based, human
Description: P301S mutant Tau fibrils conjugated to the fluorescent probe ATTO 488 (Table 12) were resuspended at 50 nM in reduced serum-containing media and added to half of the cell-containing wells for 3 hours at 37° C. Following Tau fibrils uptake, cells were trypsinized to remove excess Tau fibrils attached to the cell surface, labeled with Hoechst 33342 to visualize nuclei and CellTracker Orange to visualize the cytoplasm and plated in a new poly-L-lysine-coated 24-well glass bottom plates. Cells were allowed to attach (2-3 hours), before addition of 0.1 μM MG-132 in reduced serum-containing media for additional 18-20 h.
For analysis, 10-15×16-bit images per well were captured with a 20× objective and processed for analysis of gigasome production. Composite images were separated in the different channels. The background was subtracted from the green Tau fibrils cargo channel, as described Example 13.a and the signal thresholded using the “Yen” autothreshold algorithm. The cargo signal (integrated density) in the green channel was measured and normalized to the number of nuclei counted in each field in the Tau-F conditions. […] The quantity or distribution of objects obtained from the particle analysis was divided by the number of cells counted in each field to obtain a normalized quantity or distribution. […]

[3] = system: neuronal cell line derived from human neuroblastoma; settings: neuronal cells, dose 100 nM, 24 hours
Description: For the screening, a total of 99 compounds (TargetMol) were divided in 5 groups. Each group included an untreated condition, a vehicular DMSO control, and a known high-gigasome producing condition to comparatively study gigasome production rates. As a cell death control group, 500 nM Staurosporine was added to induce apoptosis. Cultures were incubated for 24 hours under gigasome inducing conditions at concentrations ranging between 10 nM and 10,000 nM. Before the end of the treatment, live neuronal cultures were imaged. The Zeiss ZEN Blue software was used to distribute imaging fields of view (positions) to create an unbiased imaging sample of a well. 5 images were taken using a Zeiss LSM 900 confocal microscope. […] The BioApps ZEN software package was used to perform cell nucleus segmentation and counting. After 24 hours, gigasomes were harvested from the cell culture media by gently removing from the top of each 96-well ⅔ of the total volume without disturbing the cell layer (containing the settled gigasomes) and by adding to each well the same amount of PBS. […] Cells remaining in the 96-well plates were assessed for viability using CellTiter-Glo (Promega).

[4] = system: neuronal cell line derived from human neuroblastoma; test: Small molecule compound screen of gigasome production in neuronal monocultures
[5] = system: cardiomyocytic cell line derived from human ventricular heart tissue; test: Small molecule compound screen of gigasome production in cardiomyocytic monocultures; settings: for Number of Gigasomes Produced: Table 22, cardiomyocytes, 24 hours;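 on all read-outs here: gigasomes shed into the culture medium were imaged by confocal microscopy and counted as round particles lacking nuclear signal, extrapolated to the whole well, fold change is relative to DMSO vehicle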
Description: For the screening, a total of 100 randomly organized compounds (TargetMol) were divided in 5 groups. Each group included an untreated condition, a vehicular DMSO control, and a known high-gigasome producing condition to comparatively study gigasome production rates. As a cell death control group, 500 nM Staurosporine was added to induce apoptosis. Cultures were incubated for 24 hours under gigasome inducing conditions at concentrations ranging between 10 nM and 10,000 nM. […] The Zeiss ZEN Blue software was used to distribute imaging fields of view (positions) to create an unbiased imaging sample of a well. 5 images were taken using a Zeiss LSM 900 confocal microscope. […] The BioApps ZEN software package was used to perform cell nucleus segmentation and counting. After 24 hours, gigasomes were harvested from the cell culture media by gently removing from the top of each 96-well ⅔ of the total volume without disturbing the cell layer (containing the settled gigasomes) and by adding to each well the same amount of PBS containing 0.5 mM EDTA. The wells were washed twice gently, and the gigasome-containing media/0.5 mM EDTA PBS wash was transferred into the well of a 384-well glass bottom plate. Cells remaining in the 96-well plates were assessed for viability using CellTiter-Glo (Promega).
For gigasome analysis in 384-well plates, the Zeiss ZEN Blue software was used to distribute positions to create an unbiased imaging sample of a well. 6 images per well were taken using a Zeiss LSM 900 confocal microscope. […] A watershed binary segmentation step was performed to separate grouped objects. For each particle in the mask, characteristic parameters of the particle were calculated and saved. […] Particles of interest were identified by thresholding by area and circularity. […] Circularity, defined by the formula 4pi(area/perimeter^2, was set to be between 0.8, where a value of 1.0 is a perfect circle, and a value of 0 is a line. Gigasomes were identified from the particles of interest by thresholding by mean nuclear signal. The nuclear signal threshold was set using a value equal to one quarter of a threshold value calculated by the Li auto-threshold algorithm applied to the distribution of all particles of interest. Particles of interest with nuclear signal below this value were considered “negative” for nuclear material and were identified as gigasomes. A sampling factor was calculated to extrapolate the total quantity of a type of object (particles, particles of interest, gigasomes) in the well. The sampling factor was the percentage of the well's area that was imaged. […] In some experiments, the number of cells in the cell cultures were estimated with a cell counter. […] The normalized quantity or distribution of objects was described as a quantity or distribution of objects per 1000 cells.

[6] = Homo sapiens, Cardiomyocyte, 24 h, read-out: Fold Change of Gigasomes Produced vs. DMSO

## CC(C)C[C@@H](C=O)NC(=O)[C@H](CC(C)C)NC(=O)[C@H](CC(C)C)NC(=O)OCc1ccccc1 [MG-132, reference compound] (Cbz-Leu-Leu-Leu-aldehyde)
Neuronal cells [1]; compared to γ-secretase inhibitor and DMSO conditions (FIG. 6D)
  C-APP+ve particle intensity distribution (gigasome diameter and brightness): larger in diameter and brighter
Neuronal cells [1]; γ-secretase inhibitor 5 μM, MG-132 0.1 μM, alone or combined, 24 h, compared to DMSO
  intracellular APP-CTF levels (C-APP immunoreactivity): does not increase
Neuronal cells [2]; gigasomes harvested from cell culture media (FIG. 8E)
  gigasomes per 1000 cells: approximately 4.5 per 1000 cells
Neuronal cells [2]; plated live cells, Tau fibrils 50 nM 3 h, MG-132 0.1 μM 18-20 h (FIG. 8C)
  gigasomes per 1000 cells: approximately 325 per 1000 cells
[3]
  Viability: 50-75%
[4]; Homo sapiens, 24 h, read-out: Fold Change of Gigasomes Produced vs. DMSO
  fold induction at 0.1 µM: 1.5 to 1.75
[4]; neuronal cells, dose 100 nM, 24 hours
  Number of Gigasomes Produced: 55-65
[5]; [6]
  fold induction at 0.01 µM: 1.5 to 1.75
  fold induction at 0.1 µM: > 4
[5]; dose 10 nM
  Number of Gigasomes Produced: 150-175
[5]; dose 100 nM
  Number of Gigasomes Produced: >400
